The source of these data is patent US20250154105A1, “POLYCYCLIC COMPOUND AND USE THEREOF” (TYK MEDICINES, INC., priority 2021, published 2025).

pIC50: −log10 of the molar value.

The test system of test [1] is human pleural mesothelioma cells NCI-H226. The experiment in a line: Cell anti-proliferation experiment (CCK8), NCI-H226. Type of test: cell-based. Summed up: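 Viability was measured by CCK-8 (3 h, A450) after 3-day treatment with 0.15–333.33 nM compound in 0.1% DMSO medium. Curve-fitted IC50 was based on viability normalised to no-drug and cell-free controls.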
Test [2] concerns YAP-TEAD. The experiment in a line: YAP-TEAD inhibitor activity by Nano luciferase method (8xGTiiC-nLuc reporter in 293T cells). In kind it is cell-based. Particulars: Homo sapiens, HEK-293T, 48 hours incubation, read-out: Nano-luciferase detection (IC50). Summed up: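 IC50 derived from nLuc reporter signal normalised to 0 nM wells, after 48 h, 37 °C compound exposure (1:3.16 series, highest 10,000 nM). Cells: 293T transfected with 8xGTiiC-nLuc/CMV-fLuc plasmid, plated at 2000 per well.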

As a reminder, the pIC50 is the negative decadic logarithm of the IC50, by convention in mol/L. On to `Cn1cc2c(=O)n(-c3ccc(C(F)(F)F)cc3)c3ccc(C(=O)N[C@@H](c4ccccc4)c4ccccn4)cc3c2n1` [Example T-142], for which the pIC50 in test [1] and in test [2] was 5.30 to 6.00 in each case.
As for `COc1ccnc([C@H](C)NC(=O)c2ccc3c(c2)c2nn(C)cc2c(=O)n3-c2ccc(C(F)(F)F)cc2)c1` [Example T-143], the pIC50 in test [1] and in test [2] was 5.30 to 6.00 each time.
`C[C@H](NC(=O)c1ccc2c(c1)c1nn(C)cc1c(=O)n2-c1ccc(C(F)(F)F)cc1)c1ccc(F)cn1` [Example T-144]: the pIC50 in test [1] and in test [2] was 5.30 to 6.00 each time.
For the molecule `Cc1cccnc1[C@H](C)NC(=O)c1ccc2c(c1)c1nn(C)cc1c(=O)n2-c1ccc(C(F)(F)F)cc1` [Example T-145], the negative logarithm of the IC50 (pIC50) in test [1] and in test [2] was at least 6.00 throughout.
With `C[C@H](NC(=O)c1ccc2c(c1)c1nn(C)cc1c(=O)n2-c1ccc(C(F)(F)F)cc1)c1cccnc1` [Example T-146], the negative logarithm of the IC50 (pIC50) in test [1] and in test [2] was 5.30 to 6.00 in each case.
For `C[C@H](NC(=O)c1ccc2c(c1)c1nn(C)cc1c(=O)n2-c1ccc(C(F)(F)F)cc1)c1cccc(N)n1` [Example T-148], the pIC50 in test [1] and in test [2] was at least 6.00 throughout.
As for `CNc1cccc([C@H](C)NC(=O)c2ccc3c(c2)c2nn(C)cc2c(=O)n3-c2ccc(C(F)(F)F)cc2)n1` [Example T-149], the negative-log IC50 (pIC50) in test [1] and in test [2] was at least 6.00 in each case.
With `C[C@H](NC(=O)c1ccc2c(c1)c1nn(C)cc1c(=O)n2-c1ccc(C(F)(F)F)cc1)c1cccc(N(C)C)n1` [Example T-150], the pIC50 in test [1] and in test [2] was at least 6.00 in each case.
Take `Cc1cccc([C@H](C)NC(=O)c2ccc3c(c2)c2nn(C)cc2c(=O)n3-c2ccc(C(F)(F)F)cc2)n1` [Example T-151]: the pIC50 in test [1] and in test [2] was at least 6.00 in each case.
Take `C[C@H](NC(=O)c1ccc2c(c1)c1nn(C)cc1c(=O)n2-c1ccc(C(F)(F)F)cc1)c1cccc(C#N)n1` [Example T-152]: the pIC50 in test [1] and in test [2] was at least 6.00 throughout.
With `C[C@H](NC(=O)c1ccc2c(c1)c1nn(C)cc1c(=O)n2-c1ccc(C(F)(F)F)cc1)c1cccc(F)n1` [Example T-153], the pIC50 in test [1] and in test [2] was at least 6.00 throughout.
`C[C@H](NS(=O)(=O)c1ccc2c(c1)c1nn(C)cc1c(=O)n2-c1ccc(C(F)(F)F)cc1)c1ccccc1` [Example T-165]: the negative logarithm of the IC50 (pIC50) in test [1] and in test [2] was 5.30 to 6.00 in each case.
In the case of `C[C@H](NS(=O)(=O)c1ccc2c(c1)c1nn(C)cc1c(=O)n2-c1ccc(S(F)(F)(F)(F)F)cc1)c1ccccn1` [Example T-166], the negative logarithm of the IC50 (pIC50) in test [1] and in test [2] was 5.30 to 6.00 throughout.
Regarding `C[C@H](NS(=O)(=O)c1ccc2c(c1)c1nn(C)cc1c(=O)n2-c1ccc(OC(F)(F)F)cc1)c1ccccn1` [Example T-167], the pIC50 in test [1] and in test [2] was 5.30 to 6.00 in each case.
Take `C[C@@H](C(=O)Nc1ccc2c(c1)c1nn(C)cc1c(=O)n2-c1ccc(C(F)(F)F)cc1)c1ccccn1` [Example T-168]: the pIC50 in test [1] and in test [2] was 5.30 to 6.00 in each case.
For the molecule `C[C@H](C(=O)Nc1ccc2c(c1)c1nn(C)cc1c(=O)n2-c1ccc(C(F)(F)F)cc1)c1ccccn1` [Example T-169], the pIC50 in test [1] and in test [2] was 5.30 to 6.00 in each case.
Regarding `Cn1cc2c(=O)n(-c3ccc(C(F)(F)F)cc3)c3ccc(NC(=O)c4ccccn4)cc3c2n1` [Example T-170], the pIC50 in test [1] and in test [2] was at least 6.00 throughout.
For the molecule `Cn1cc2c(=O)n(-c3ccc(C(F)(F)F)cc3)c3ccc(NC(=O)c4ccccc4)cc3c2n1` [Example T-171], the negative-log IC50 (pIC50) in test [1] and in test [2] was at least 6.00 throughout.
On to `C=CC(=O)Nc1ccc2c(c1)c1nn(C)cc1c(=O)n2-c1ccc(C(F)(F)F)cc1` [Example T-172], for which the pIC50 in test [1] and in test [2] was at least 6.00 each time.
Take `Cn1cc2c(=O)n(-c3ccc(C(F)(F)F)cc3)c3ccc(NC(=O)CCCCl)cc3c2n1` [Example T-173]: the pIC50 in test [1] and in test [2] was 5.30 to 6.00 each time.
